Data from patent US12612410B2 (CHILDREN'S HOSPITAL MEDICAL CENTER, priority 2020, dated 2026).

biological target: T1, FLT3 N841I (Homo sapiens, UniProt P36888, N841I); assay: DiscoverX KINOMEscan competition binding, FLT3 N841I
T1 construct: host or cells: E. coli BL21-derived host (T7 phage) or HEK-293
T1 sequence (P36888 27-993 N841I): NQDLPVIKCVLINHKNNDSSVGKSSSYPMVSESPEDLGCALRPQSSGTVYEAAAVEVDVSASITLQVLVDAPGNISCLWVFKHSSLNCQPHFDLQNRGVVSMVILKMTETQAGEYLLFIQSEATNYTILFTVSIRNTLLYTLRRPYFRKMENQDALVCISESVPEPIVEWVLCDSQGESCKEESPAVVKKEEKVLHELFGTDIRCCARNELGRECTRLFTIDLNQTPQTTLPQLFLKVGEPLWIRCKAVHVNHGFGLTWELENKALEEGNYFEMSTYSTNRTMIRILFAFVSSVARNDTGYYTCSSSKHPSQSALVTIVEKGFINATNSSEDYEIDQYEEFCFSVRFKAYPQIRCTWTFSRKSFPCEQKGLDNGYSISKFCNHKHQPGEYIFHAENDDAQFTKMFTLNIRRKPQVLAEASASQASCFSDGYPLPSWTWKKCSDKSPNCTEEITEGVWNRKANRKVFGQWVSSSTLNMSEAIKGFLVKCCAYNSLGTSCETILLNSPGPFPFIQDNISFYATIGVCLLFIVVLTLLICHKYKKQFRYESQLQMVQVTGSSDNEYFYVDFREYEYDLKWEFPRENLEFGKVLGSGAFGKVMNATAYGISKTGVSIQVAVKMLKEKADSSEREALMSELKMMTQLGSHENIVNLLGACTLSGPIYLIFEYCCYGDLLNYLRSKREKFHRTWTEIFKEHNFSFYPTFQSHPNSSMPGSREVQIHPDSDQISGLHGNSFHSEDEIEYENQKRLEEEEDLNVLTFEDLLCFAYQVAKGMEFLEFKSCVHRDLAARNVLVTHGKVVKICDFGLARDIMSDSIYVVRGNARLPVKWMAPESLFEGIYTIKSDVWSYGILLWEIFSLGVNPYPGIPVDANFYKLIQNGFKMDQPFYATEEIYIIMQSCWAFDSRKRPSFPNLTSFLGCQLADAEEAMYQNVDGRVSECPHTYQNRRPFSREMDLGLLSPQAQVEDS
Text: Kinase binding data were obtained for various exemplary compounds prepared according to Examples 1-24 using the DiscoverX KINOMVIEscan® active site-directed competition binding site-directed assay protocol described below. […] As a result, the data report thermodynamic interaction affinities (Kd values), rather than IC50 values that are dependent on ATP concentrations. The assay uses a DNA-tagged version of the protein kinase, and an immobilized ligand bound to a solid support. Compounds that directly or indirectly prevent kinase binding to the immobilized ligand reduce the amount of kinase captured on the solid support, which is detected using an ultra-sensitive qPCR method. Affinity constants reported from the assay have been reported to be independent of the immobilized ligand used that is coupled to the solid support (See supplemental information in Fabian, M. A. et. al., (2005) Nat. Biotechnol. 23, 329-336; Wodicka, L. M. et. al., (2010) Chem. Biol. 17, 1241-1249.)
Kinase-tagged T7 phage strains were prepared in an E. coli host derived from the BL21 strain. E. coli were grown to log-phase and infected with T7 phage and incubated with shaking at 32° C. until lysis. The lysates were centrifuged and filtered to remove cell debris. The remaining kinases were produced in HEK-293 cells and subsequently tagged with DNA for qPCR detection. Streptavidin-coated magnetic beads were treated with biotinylated small molecule ligands for 30 minutes at room temperature to generate affinity resins for kinase assays. The liganded beads were blocked with excess biotin and washed with blocking buffer (SeaBlock (Pierce), 1% BSA, 0.05% Tween 20, 1 mM DTT) to remove unbound ligand and to reduce non-specific binding. Binding reactions were assembled by combining kinases, liganded affinity beads, and test compounds in 1× binding buffer (20% SeaBlock, 0.17×PBS, 0.05% Tween 20, 6 mM DTT). Test compounds were prepared as 111× stocks in 100% DMSO. Kds were determined using an 11-point 3-fold compound dilution series with three DMSO control points. All compounds for Kd measurements are distributed by acoustic transfer (non-contact dispensing) in 100% DMSO. The compounds were then diluted directly into the assays such that the final concentration of DMSO was 0.9%. All reactions were performed in polypropylene 384-well plates. Each was a final volume of 0.02 mL. The assay plates were incubated at room temperature with shaking for 1 hour and the affinity beads were washed with wash buffer (1×PBS, 0.05% Tween 20). The beads were then re-suspended in elution buffer (1×PBS, 0.05% Tween 20, 0.5 μM nonbiotinylated affinity ligand) and incubated at room temperature with shaking for 30 minutes. The kinase concentration in the eluates was measured by qPCR.
Binding constants (Kds) were calculated with a standard dose-response curve using the Hill equation. The Hill Slope was set to −1. Curves were fitted using a non-linear least square fit with the Levenberg-Marquardt algorithm.

Kd [nM] | SMILES
0.12 | CC1(c2cn3c(-c4cccc(N[C@H]5CNC[C@@H]5F)n4)cnc3cn2)CC1 [Compound 1, N-((3S,4S)-4-fluoropyrrolidin-3-yl)-6-(6-(1-methylcyclopropyl)imidazo[1,2-a]pyrazin-3-yl)pyridin-2-amine]
0.12 | CC1(c2cn3c(-c4cccc(N[C@@H]5CCNC5)n4)cnc3cn2)CC1 [Compound 3, (R)-6-(6-(1-methylcyclopropyl)imidazo[1,2-a]pyrazin-3-yl)-N-(pyrrolidin-3-yl)pyridin-2-amine]
0.091 | CC1(c2cn3c(-c4cccc(N[C@H]5CNCC56CC6)n4)cnc3cn2)CC1 [Compound 5, (R)-N-(6-(6-(1-methylcyclopropyl)imidazo[1,2-a]pyrazin-3-yl)pyridin-2-yl)-5-azaspiro[2.4]heptan-7-amine]
0.29 | FC(F)(F)C1(c2cn3c(-c4cccc(N[C@@H]5CCNC5)n4)cnc3cn2)CC1 [Compound 10, (R)-N-(pyrrolidin-3-yl)-6-(6-(1-(trifluoromethyl)cyclopropyl)imidazo[1,2-a]pyrazin-3-yl)pyridin-2-amine]
0.65 | FC(F)c1cn2c(-c3cccc(N[C@H]4CNC[C@@H]4F)n3)cnc2cn1 [Compound 16, 6-(6-(difluoromethyl)imidazo[1,2-a]pyrazin-3-yl)-N-((3S,4S)-4-fluoropyrrolidin-3-yl)pyridin-2-amine]
0.27 | FC(F)c1cn2c(-c3cccc(N[C@H]4CNCC[C@@H]4F)n3)cnc2cn1 [Compound 25, 6-(6-(difluoromethyl)imidazo[1,2-a]pyrazin-3-yl)-N-((3S,4S)-4-fluoropiperidin-3-yl)pyridin-2-amine]
3.5 | CC(C)(O)c1cn2c(-c3cccc(N[C@@H]4CCCNC4)n3)cnc2cn1 [Compound 30, (R)-2-(3-(6-(piperidin-3-ylamino)pyridin-2-yl)imidazo[1,2-a]pyrazin-6-yl)propan-2-ol]
2.1 | CC(C)(O)c1cn2c(-c3cccc(N[C@H]4CNCC[C@@H]4F)n3)cnc2cn1 [Compound 31, 2-(3-(6-(((3S,4S)-4-fluoropiperidin-3-yl)amino)pyridin-2-yl)imidazo[1,2-a]pyrazin-6-yl)propan-2-ol]
0.52 | FC(F)(F)COc1cn2c(-c3cccc(N[C@@H]4CCNC4)n3)cnc2cn1 [Compound 38, (R)-N-(pyrrolidin-3-yl)-6-(6-(2,2,2-trifluoroethoxy)imidazo[1,2-a]pyrazin-3-yl)pyridin-2-amine]
0.25 | F[C@H]1CNC[C@@H]1Nc1cccc(-c2cnc3cnc(C4CC4)cn23)n1 [Compound 50, 6-(6-cyclopropylimidazo[1,2-a]pyrazin-3-yl)-N-((3S,4S)-4-fluoropyrrolidin-3-yl)pyridin-2-amine]
0.24 | Cn1cc(-c2cn3c(-c4cccc(N[C@H]5CNC[C@@H]5F)n4)cnc3cn2)cn1 [Compound 52, N-((3S,4S)-4-fluoropyrrolidin-3-yl)-6-(6-(1-methyl-1H-pyrazol-4-yl)imidazo[1,2-a]pyrazin-3-yl)pyridin-2-amine]
